Biological target: full-length human PIKFYVE (Homo sapiens (Human), UniProt Q9Y2I7, L932S/Q1183K/Q995L/S1033A/S696N/T998S)
Experiment: PIKfyve biochemical assay (ADP-Glo Kinase assay, Carna Biosciences)
Details: ADP-Glo, GST-PIKFYVE, 10 μM to 3 nM; read-out: hPIKfyve IC50
Procedure: (§1) PIKfyve Biochemical Assay. The biochemical PIKFyve inhibition assays were run by Carna Biosciences according to proprietary methodology based on the Promega ADP-Glo™ Kinase assay. […] GST-PIKFYVE was purified by using glutathione sepharose chromatography and used in an ADP-Glo™ Kinase assay (Promega). Reactions were set up by adding the test compound solution, substrate solution, ATP solution and kinase solution, each at 4× final concentrations. Reactions were prepared with assay buffer (50 mM MOPS, 1 mM DTT, pH7.2), mixed, and incubated in black 384 well polystyrene plates for 1 hour at room temperature. ADPGlo™ reagent was then added for 40 minutes, followed by kinase detection reagent for an additional 40 minutes. The kinase activity was evaluated by detecting relative light units on a luminescence plate reader. Samples were run in duplicate from 10 μM to 3 nM. […] IC50 values were calculated from concentration vs % inhibition curves by fitting to a four-parameter logistic curve.
as §1, with “The” for “PIKfyve Biochemical Assay. The”, “ADP-Glo™” for “ADPGlo™”, “uM” for “μM”, “curve. […]” for “curve.”

Chain of full-length human PIKFYVE (Q9Y2I7 whole entry S696N/L932S/Q995L/T998S/S1033A/Q1183K): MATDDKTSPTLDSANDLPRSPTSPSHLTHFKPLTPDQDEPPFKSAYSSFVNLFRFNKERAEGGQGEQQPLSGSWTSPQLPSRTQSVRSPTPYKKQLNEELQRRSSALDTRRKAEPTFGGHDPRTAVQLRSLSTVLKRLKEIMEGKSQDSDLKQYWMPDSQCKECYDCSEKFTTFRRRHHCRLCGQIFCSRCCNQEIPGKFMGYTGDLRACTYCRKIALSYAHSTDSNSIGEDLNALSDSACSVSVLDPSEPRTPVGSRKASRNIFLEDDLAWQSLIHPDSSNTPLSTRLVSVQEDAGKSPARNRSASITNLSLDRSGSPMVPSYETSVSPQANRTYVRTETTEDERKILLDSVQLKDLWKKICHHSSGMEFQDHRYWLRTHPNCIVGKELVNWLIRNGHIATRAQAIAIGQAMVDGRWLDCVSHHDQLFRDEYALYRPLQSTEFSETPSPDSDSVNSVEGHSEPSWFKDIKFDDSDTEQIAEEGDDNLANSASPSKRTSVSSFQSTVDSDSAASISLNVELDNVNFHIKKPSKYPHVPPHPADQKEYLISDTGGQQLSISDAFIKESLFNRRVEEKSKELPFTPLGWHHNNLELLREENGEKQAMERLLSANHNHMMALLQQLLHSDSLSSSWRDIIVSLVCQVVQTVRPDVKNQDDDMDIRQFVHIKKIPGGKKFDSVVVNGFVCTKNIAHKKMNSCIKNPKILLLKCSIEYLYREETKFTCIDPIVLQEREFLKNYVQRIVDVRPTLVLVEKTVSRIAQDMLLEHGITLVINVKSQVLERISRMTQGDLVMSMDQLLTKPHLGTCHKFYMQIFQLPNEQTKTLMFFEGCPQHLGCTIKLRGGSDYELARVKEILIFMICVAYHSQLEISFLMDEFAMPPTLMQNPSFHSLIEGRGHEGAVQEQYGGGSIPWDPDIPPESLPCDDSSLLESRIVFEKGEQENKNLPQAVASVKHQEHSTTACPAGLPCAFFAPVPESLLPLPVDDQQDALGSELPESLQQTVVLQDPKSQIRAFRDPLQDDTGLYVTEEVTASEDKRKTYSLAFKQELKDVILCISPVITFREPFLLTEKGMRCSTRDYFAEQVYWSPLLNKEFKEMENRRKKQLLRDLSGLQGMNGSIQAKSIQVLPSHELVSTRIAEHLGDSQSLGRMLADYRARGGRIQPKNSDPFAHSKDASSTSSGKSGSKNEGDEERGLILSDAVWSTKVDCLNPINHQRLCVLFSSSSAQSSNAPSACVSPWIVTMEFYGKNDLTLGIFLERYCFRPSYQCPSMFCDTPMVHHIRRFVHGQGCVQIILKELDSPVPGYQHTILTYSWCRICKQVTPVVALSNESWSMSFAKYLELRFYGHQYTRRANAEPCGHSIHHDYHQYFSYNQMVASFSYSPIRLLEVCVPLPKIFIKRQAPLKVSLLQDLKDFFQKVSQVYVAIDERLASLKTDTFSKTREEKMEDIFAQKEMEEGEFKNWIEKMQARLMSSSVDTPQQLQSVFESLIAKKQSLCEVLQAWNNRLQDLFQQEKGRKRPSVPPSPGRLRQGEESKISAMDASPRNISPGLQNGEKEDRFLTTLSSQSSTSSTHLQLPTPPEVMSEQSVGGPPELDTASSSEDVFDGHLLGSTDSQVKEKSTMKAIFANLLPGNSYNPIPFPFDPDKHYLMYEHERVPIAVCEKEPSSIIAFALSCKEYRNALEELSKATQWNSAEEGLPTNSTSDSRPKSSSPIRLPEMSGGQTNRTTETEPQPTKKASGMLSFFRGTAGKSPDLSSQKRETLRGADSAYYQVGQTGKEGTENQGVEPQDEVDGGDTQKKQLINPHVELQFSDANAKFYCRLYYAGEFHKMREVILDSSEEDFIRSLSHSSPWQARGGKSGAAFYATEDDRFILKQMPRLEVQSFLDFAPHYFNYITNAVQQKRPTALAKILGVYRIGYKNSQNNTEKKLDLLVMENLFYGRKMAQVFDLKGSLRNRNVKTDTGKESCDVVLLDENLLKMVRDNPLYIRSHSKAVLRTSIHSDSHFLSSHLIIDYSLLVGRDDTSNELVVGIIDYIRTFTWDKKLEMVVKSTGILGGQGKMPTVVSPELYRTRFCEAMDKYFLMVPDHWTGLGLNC

SMILES	IC50 [nM]
Cn1c(C2=CCOCC2)nc2c(N3CCOCC3)nc(-n3ccc(-c4cccnc4)n3)nc21 [Compound 85, 4-(8-(3,6-dihydro-2H-pyran-4-yl)-9-methyl-2-(3-(pyridin-3-yl)-1H-pyrazol-1-yl)-9H-purin-6-yl)morpholine]	10 to 100
CN1CC(Cc2ccn(-c3nc(N4CCOCC4)c4nc(-c5ccncc5)n(C)c4n3)n2)C1 [Compound 86, 4-(9-methyl-2-(3-((1-methylazetidin-3-yl)methyl)-1H-pyrazol-1-yl)-8-(pyridin-4-yl)-9H-purin-6-yl)morpholine]	< 10
CN1CC(c2ccn(-c3nc(N4CCOCC4)c4nc(-c5ccncc5)n(C)c4n3)n2)CCC1=O (stereo not shown) [Compound 88, 1-methyl-5-(1-(9-methyl-6-morpholino-8-(pyridin-4-yl)-9H-purin-2-yl)-1H-pyrazol-3-yl)piperidin-2-one]	< 10
Cn1c(C2CCOCC2)nc2c(N3CCOCC3)nc(-c3noc(-c4ccccc4)n3)nc21 [Compound 89, 4-(9-methyl-2-(5-phenyl-1,2,4-oxadiazol-3-yl)-8-(tetrahydro-2H-pyran-4-yl)-9H-purin-6-yl)morpholine]	100 to 1000
Cn1c(C2CCNC2)nc2c(N3CCOCC3)nc(-n3ccc(-c4ccccc4)n3)nc21 (stereo not shown) [Compound 90, 4-(9-Methyl-2-(3-phenyl-1H-pyrazol-1-yl)-8-(pyrrolidin-3-yl)-9H-purin-6-yl)morpholine]	10 to 100
CC1CC(c2cccc(-c3nc(N4CCOCC4)c4nc(-c5ccncc5)n(C)c4n3)n2)CCN1 (stereo not shown) [Compound 91, 4-(9-methyl-2-(6-(2-methylpiperidin-4-yl)pyridin-2-yl)-8-(pyridin-4-yl)-9H-purin-6-yl)morpholine]	100 to 1000
Cn1c(-c2ccncc2)nc2c(N3CCOCC3)nc(-n3cc(-c4ccccc4)cn3)nc21 [Compound 92, 4-(9-methyl-2-(4-phenyl-1H-pyrazol-1-yl)-8-(pyridin-4-yl)-9H-purin-6-yl)morpholine]	10 to 100
Cn1c(-c2ccncc2)nc2c(N3CCOCC3)nc(-n3cc(-c4ccncc4)cn3)nc21 [Compound 93, 4-(9-methyl-8-(pyridin-4-yl)-2-(4-(pyridin-4-yl)-1H-pyrazol-1-yl)-9H-purin-6-yl)morpholine]	10 to 100
Cn1c(-c2ccncc2)nc2c(N3CCOCC3)nc(-c3ccnc(C(F)(F)F)n3)nc21 [Compound 94, 4-(9-methyl-8-(pyridin-4-yl)-2-(2-(trifluoromethyl)pyrimidin-4-yl)-9H-purin-6-yl)morpholine]	10 to 100
Cn1c(-c2ccncc2)nc2c(N3CCOCC3)nc(-c3ccnc(C4CCCNC4)n3)nc21 (stereo not shown) [Compound 95, 4-(9-methyl-2-(2-(piperidin-3-yl)pyrimidin-4-yl)-8-(pyridin-4-yl)-9H-purin-6-yl)morpholine]	100 to 1000
Cn1c(-c2ccncc2)nc2c(N3CCOCC3)nc(-n3ccc(C4CCOC4)n3)nc21 (stereo not shown) [Compound 96, 4-(9-methyl-8-(pyridin-4-yl)-2-(3-(tetrahydrofuran-3-yl)-1H-pyrazol-1-yl)-9H-purin-6-yl)morpholine]	1000 to 10000
Cn1c(-c2ccncc2)nc2c(N3CCOCC3)nc(-c3ccnc(C4CC4)n3)nc21 [Compound 97, 4-(2-(2-cyclopropylpyrimidin-4-yl)-9-methyl-8-(pyridin-4-yl)-9H-purin-6-yl)morpholine]	10 to 100
Cn1c(-c2ccncc2)nc2c(N3CCOCC3)nc(-c3ccc(Cl)cn3)nc21 [Compound 98, 4-(2-(5-chloropyridin-2-yl)-9-methyl-8-(pyridin-4-yl)-9H-purin-6-yl)morpholine]	10 to 100
Cn1c(-c2ccncc2)nc2c(N3CCOCC3)nc(-c3ccc4c(c3)OCO4)nc21 [Compound 99, 4-(2-(benzo[d][1,3]dioxol-5-yl)-9-methyl-8-(pyridin-4-yl)-9H-purin-6-yl)morpholine]	10 to 100
Cn1c(-c2ccncc2)nc2c(N3CCOCC3)nc(-n3ccc(C(F)(F)F)n3)nc21 [Compound 100, 4-(9-methyl-8-(pyridin-4-yl)-2-(3-(trifluoromethyl)-1H-pyrazol-1-yl)-9H-purin-6-yl)morpholine]	< 10
Cn1c(-c2ccncc2)nc2c(N3CCOCC3)nc(N3CCC(F)(F)C3)nc21 [Compound 101, 4-(2-(3,3-difluoropyrrolidin-1-yl)-9-methyl-8-(pyridin-4-yl)-9H-purin-6-yl)morpholine]	10 to 100
Cn1c(-c2ccncc2)nc2c(N3CCOCC3)nc(NC3CCCC3)nc21 [Compound 102, N-cyclopentyl-9-methyl-6-morpholino-8-(pyridin-4-yl)-9H-purin-2-amine]	10 to 100

SMILES	IC50 [nM]
Cn1c(-c2ccncc2)nc2c(N3CCOCC3)nc(-c3nccc(C4CC4)n3)nc21 [Compound 103, 4-(2-(4-cyclopropylpyrimidin-2-yl)-9-methyl-8-(pyridin-4-yl)-9H-purin-6-yl)morpholine]	10 to 100
Cn1c(-c2ccncc2)nc2c(N3CCOCC3)nc(-c3cccnc3)nc21 [Compound 104, 4-(9-methyl-2-(pyridin-3-yl)-8-(pyridin-4-yl)-9H-purin-6-yl)morpholine]	10 to 100
FC(F)n1c(-c2ccncc2)nc2c(N3CCOCC3)nc(-c3ccnc(-c4ccccc4)n3)nc21 [Compound 105, 4-(9-(difluoromethyl)-2-(2-phenylpyrimidin-4-yl)-8-(pyridin-4-yl)-9H-purin-6-yl)morpholine]	1000 to 10000
COc1ccc(-c2nc(N3CCOCC3)c3nc(-c4ccncc4)n(C)c3n2)cc1OC [Compound 106, 4-(2-(3,4-dimethoxyphenyl)-9-methyl-8-(pyridin-4-yl)-9H-purin-6-yl)morpholine]	< 10
CN1Cc2ccc(-c3nc(N4CCOCC4)c4nc(-c5ccncc5)n(C)c4n3)cc2C1=O [Compound 107, 2-methyl-6-(9-methyl-6-morpholino-8-(pyridin-4-yl)-9H-purin-2-yl)isoindolin-1-one]	< 10
Cn1c(-c2ccncc2)nc2c(N3CCOCC3)nc(-c3ccnc(C4CCNCC4)n3)nc21 [Compound 108, 4-(9-methyl-2-(2-(piperidin-4-yl)pyrimidin-4-yl)-8-(pyridin-4-yl)-9H-purin-6-yl)morpholine]	< 10
c1ccc(-c2nc(-c3nc(N4CCOCC4)c4nc(-c5ccncc5)[nH]c4n3)no2)cc1 [Compound 109, 4-(2-(5-phenyl-1,2,4-oxadiazol-3-yl)-8-(pyridin-4-yl)-9H-purin-6-yl)morpholine]	10 to 100
Cn1c(-c2ccncc2)nc2c(N3CCOCC3)nc(C3CC3)nc21 [Compound 110, 4-(2-cyclopropyl-9-methyl-8-(pyridin-4-yl)-9H-purin-6-yl)morpholine]	< 10
Cn1c(C2CCNCC2)nc2c(N3CCOCC3)nc(-c3ccc4c(c3)OCCO4)nc21 [Compound 113, 4-(2-(2,3-dihydrobenzo[b][1,4]dioxin-6-yl)-9-methyl-8-(piperidin-4-yl)-9H-purin-6-yl)morpholine]	< 10
Cn1c(-c2ccncc2)nc2c(N3CCOCC3)nc(-c3ccc4c(c3)NCCC4)nc21 [Compound 114, 4-(9-methyl-8-(pyridin-4-yl)-2-(1,2,3,4-tetrahydroquinolin-7-yl)-9H-purin-6-yl)morpholine]	< 10
CS(=O)(=O)N1CCN(Cc2cc3c(N4CCOCC4)nc(-c4cccc5[nH]ncc45)nc3s2)CC1 [Compound 117]	100 to 1000
Cc1cccc(/C=N/Nc2nc(N3CCOCC3)c3nc(-c4ccncc4)oc3n2)c1 [Compound 120]	< 10
Cc1cccc(/C=N/Nc2nc(N3CCOCC3)c3nc(-c4ccncc4)sc3n2)c1 [Compound 121]	< 10
c1ccc(-c2nccc(-c3nc(N4CCOCC4)c4cc(-c5ccncc5)sc4n3)n2)cc1 [Compound 122]	10 to 100
c1ccc(-c2nccc(-c3nc(N4CCOCC4)c4nc(-c5ccncc5)sc4n3)n2)cc1 [Compound 123]	10 to 100
c1ccc(-n2ccc(-c3nc(N4CCOCC4)c4cc(-c5ccncc5)sc4n3)n2)cc1 [Compound 124]	10 to 100
c1ccc(-c2nccc(-c3nc(N4CCOCC4)c4sc(-c5ccncc5)nc4n3)n2)cc1 [Compound 125]	100 to 1000

Reference: patent US20240150358A1, “PURINES AND METHODS OF THEIR USE” (Kineta, Inc., priority 2020, published 2024)
